# Where two headings read alike, the source gives them in different places.
# Experiments:
# [1] = tested on: H209 small lung cell carcinoma; assay: Mouse xenograft tumor growth; assay type: in vivo, SCID mice
# MDA-MB-231/ATCC = assay: In-Vitro Testing SRB panel: Breast Cancer; assay type: cell-based
# MC-F7 = assay: In-Vitro Testing SRB panel: Breast Cancer; assay type: cell-based
# OVCAR-5 = assay: In-Vitro Testing SRB panel: Ovarian Cancer; assay type: cell-based
# 786-0 = assay: In-Vitro Testing SRB panel: Renal Cancer; assay type: cell-based
# MALM-3M = assay: In-Vitro Testing SRB panel: Melanoma; assay type: cell-based
# IGROV1 = assay: In-Vitro Testing SRB panel: Ovarian Cancer; assay type: cell-based
# OVCAR-8 = assay: In-Vitro Testing SRB panel: Ovarian Cancer; assay type: cell-based
# MOLT-4 = assay: In-Vitro Testing SRB panel: Leukemia; assay type: cell-based
# CCRF-CEM = assay: In-Vitro Testing SRB panel: Leukemia; assay type: cell-based
# SW-620 = assay: In-Vitro Testing SRB panel: Colon Cancer; assay type: cell-based
# A549/ATCC = assay type: cell-based
# SK-OV-3 = assay: In-Vitro Testing SRB panel: Ovarian Cancer; assay type: cell-based
# OVCAR-4 = assay: In-Vitro Testing SRB panel: Ovarian Cancer; assay type: cell-based
# MMRU = assay: SRB antiproliferative assay; assay type: cell-based; settings: Homo sapiens, MMRU (Melanoma), 5% FCS/5 day incubation
# Text: (§1) The cells were passaged using Trypsin (Gibco).
# MDA-MB-23 = assay: SRB antiproliferative assay; assay type: cell-based; settings: Homo sapiens; MDA-MB-23 (Breast); SRB; 5% FCS/5 day incubation; read-out: IC50
# Text: as §1
# BT-549 = assay: In-Vitro Testing SRB panel: Breast Cancer; assay type: cell-based
# ROP-92 = assay type: cell-based
structure (smiles),measurement,setting,value
COc1ccc2c(c1)CN(C(=O)c1ccc([N+](=O)[O-])cc1)c1ccc(Cl)cc1C2c1ccccc1Cl (centres unmarked) [Compound 30],tumor growth,[1],showed inhibition of tumor growth
same,GI50,"MDA-MB-231/ATCC; Homo sapiens, MDA-MB-231",> 100 µM
same,CC50,"MDA-MB-231/ATCC; Homo sapiens, MDA-MB-231/ATCC, read-out: LC50 (the source's name)",> 100 µM
same,TGI,MDA-MB-231/ATCC; MDA-MB-231/ATCC,>1.00E−04 Molar
same,Percent Growth,"MDA-MB-231/ATCC; MDA-MB-231/ATCC, Log10 concentration −4.0 Molar",54%
same,Percent Growth,"MDA-MB-231/ATCC; MDA-MB-231/ATCC, Log10 concentration −5.0 Molar",54%
same,Percent Growth,"MDA-MB-231/ATCC; MDA-MB-231/ATCC, Log10 concentration −6.0 Molar",89%
same,Percent Growth,"MDA-MB-231/ATCC; MDA-MB-231/ATCC, Log10 concentration −7.0 Molar",92%
same,Percent Growth,"MDA-MB-231/ATCC; MDA-MB-231/ATCC, Log10 concentration −8.0 Molar",106%
same,GI50,"MC-F7; Homo sapiens, MCF7",5.38 µM
same,CC50,"MC-F7; Homo sapiens, MCF7, MC-F7, read-out: LC50 (the source's name)",> 100 µM
same,TGI,MC-F7; MC-F7,>1.00E−04 Molar
same,Percent Growth,"MC-F7; MC-F7, Log10 concentration −4.0 Molar",33%
same,Percent Growth,"MC-F7; MC-F7, Log10 concentration −5.0 Molar",36%
same,Percent Growth,"MC-F7; MC-F7, Log10 concentration −6.0 Molar",88%
same,Percent Growth,"MC-F7; MC-F7, Log10 concentration −7.0 Molar",106%
same,Percent Growth,"MC-F7; MC-F7, Log10 concentration −8.0 Molar",102%
same,GI50,"OVCAR-5; Homo sapiens, OVCAR-5",> 100 µM
same,CC50,"OVCAR-5; Homo sapiens, OVCAR-5, read-out: LC50 (the source's name)",> 100 µM
same,TGI,OVCAR-5; OVCAR-5,>1.00E−04 Molar
same,Percent Growth,"OVCAR-5; OVCAR-5, Log10 concentration −4.0 Molar",78%
same,Percent Growth,"OVCAR-5; OVCAR-5, Log10 concentration −5.0 Molar",86%
same,Percent Growth,"OVCAR-5; OVCAR-5, Log10 concentration −6.0 Molar",98%
same,Percent Growth,"OVCAR-5; OVCAR-5, Log10 concentration −7.0 Molar",106%
same,Percent Growth,"OVCAR-5; OVCAR-5, Log10 concentration −8.0 Molar",102%
same,TGI,786-0; 786-0,>1.00E−04 Molar
same,Percent Growth,"786-0; 786-0, Log10 concentration −4.0 Molar",28%
same,Percent Growth,"786-0; 786-0, Log10 concentration −5.0 Molar",11%
same,Percent Growth,"786-0; 786-0, Log10 concentration −6.0 Molar",92%
same,Percent Growth,"786-0; 786-0, Log10 concentration −7.0 Molar",98%
same,Percent Growth,"786-0; 786-0, Log10 concentration −8.0 Molar",98%
same,GI50,"786-0; Homo sapiens, 786-0",3.28 µM
same,CC50,"786-0; Homo sapiens, 786-0, read-out: LC50 (the source's name)",> 100 µM
same,GI50,MALM-3M; Homo sapiens,0.342 µM
same,CC50,"MALM-3M; Homo sapiens, MALM-3M, read-out: LC50 (the source's name)",> 100 µM
same,TGI,MALM-3M; MALM-3M,8.35E−05 Molar
same,Percent Growth,"MALM-3M; MALM-3M, Log10 concentration −4.0 Molar",−4%
same,Percent Growth,"MALM-3M; MALM-3M, Log10 concentration −5.0 Molar",49%
same,Percent Growth,"MALM-3M; MALM-3M, Log10 concentration −6.0 Molar",16%
same,Percent Growth,"MALM-3M; MALM-3M, Log10 concentration −7.0 Molar",82%
same,Percent Growth,"MALM-3M; MALM-3M, Log10 concentration −8.0 Molar",96%
same,GI50,"IGROV1; Homo sapiens, IGROV-1",6.35 µM
same,CC50,"IGROV1; Homo sapiens, IGROV-1, IGROV1, read-out: LC50 (the source's name)",> 100 µM
same,TGI,IGROV1; IGROV1,>1.00E−04 Molar
same,Percent Growth,"IGROV1; IGROV1, Log10 concentration −4.0 Molar",36%
same,Percent Growth,"IGROV1; IGROV1, Log10 concentration −5.0 Molar",41%
same,Percent Growth,"IGROV1; IGROV1, Log10 concentration −6.0 Molar",86%
same,Percent Growth,"IGROV1; IGROV1, Log10 concentration −7.0 Molar",97%
same,Percent Growth,"IGROV1; IGROV1, Log10 concentration −8.0 Molar",97%
same,GI50,"OVCAR-8; Homo sapiens, OVCAR-8",7.72 µM
same,CC50,"OVCAR-8; Homo sapiens, OVCAR-8, read-out: LC50 (the source's name)",> 100 µM
same,TGI,OVCAR-8; OVCAR-8,>1.00E−04 Molar
same,Percent Growth,"OVCAR-8; OVCAR-8, Log10 concentration −4.0 Molar",48%
same,Percent Growth,"OVCAR-8; OVCAR-8, Log10 concentration −5.0 Molar",46%
same,Percent Growth,"OVCAR-8; OVCAR-8, Log10 concentration −6.0 Molar",84%
same,Percent Growth,"OVCAR-8; OVCAR-8, Log10 concentration −7.0 Molar",95%
same,Percent Growth,"OVCAR-8; OVCAR-8, Log10 concentration −8.0 Molar",96%
same,GI50,"MOLT-4; Homo sapiens, MOLT-4",1.33 µM
same,CC50,"MOLT-4; Homo sapiens, MOLT-4, read-out: LC50 (the source's name)",> 100 µM
same,TGI,MOLT-4; MOLT-4,>1.00E−04 Molar
same,Percent Growth,"MOLT-4; MOLT-4, Log10 concentration −4.0 Molar",13%
same,Percent Growth,"MOLT-4; MOLT-4, Log10 concentration −5.0 Molar",23%
same,Percent Growth,"MOLT-4; MOLT-4, Log10 concentration −6.0 Molar",54%
same,Percent Growth,"MOLT-4; MOLT-4, Log10 concentration −7.0 Molar",89%
same,Percent Growth,"MOLT-4; MOLT-4, Log10 concentration −8.0 Molar",103%
same,TGI,CCRF-CEM,>1.00E−04 Molar
same,GI50,CCRF-CEM; Homo sapiens,1.85 µM
same,CC50,"CCRF-CEM; Homo sapiens, read-out: LC50 (the source's name)",> 100 µM
same,Percent Growth,CCRF-CEM; Log10 concentration −4.0 Molar,39%
same,Percent Growth,CCRF-CEM; Log10 concentration −5.0 Molar,22%
same,Percent Growth,CCRF-CEM; Log10 concentration −6.0 Molar,60%
same,Percent Growth,CCRF-CEM; Log10 concentration −7.0 Molar,70%
same,Percent Growth,CCRF-CEM; Log10 concentration −8.0 Molar,73%
same,GI50,"SW-620; Homo sapiens, SW-620",> 100 µM
same,CC50,"SW-620; Homo sapiens, SW-620, read-out: LC50 (the source's name)",> 100 µM
same,TGI,SW-620; SW-620,>1.00E−04 Molar
same,Percent Growth,"SW-620; SW-620, Log10 concentration −4.0 Molar",56%
same,Percent Growth,"SW-620; SW-620, Log10 concentration −5.0 Molar",57%
same,Percent Growth,"SW-620; SW-620, Log10 concentration −6.0 Molar",87%
same,Percent Growth,"SW-620; SW-620, Log10 concentration −7.0 Molar",99%
same,Percent Growth,"SW-620; SW-620, Log10 concentration −8.0 Molar",102%
same,TGI,A549/ATCC; A549/ATCC,>1.00E−04 Molar
same,Percent Growth,"A549/ATCC; A549/ATCC, Log10 concentration −4.0 Molar",23%
same,Percent Growth,"A549/ATCC; A549/ATCC, Log10 concentration −5.0 Molar",25%
same,Percent Growth,"A549/ATCC; A549/ATCC, Log10 concentration −6.0 Molar",81%
same,Percent Growth,"A549/ATCC; A549/ATCC, Log10 concentration −7.0 Molar",96%
same,Percent Growth,"A549/ATCC; A549/ATCC, Log10 concentration −8.0 Molar",96%
same,GI50,"A549/ATCC; Homo sapiens, A549",3.57 µM
same,CC50,"A549/ATCC; Homo sapiens, A549/ATCC, read-out: LC50 (the source's name)",> 100 µM
same,GI50,"SK-OV-3; Homo sapiens, SK-OV-3",> 100 µM
same,CC50,"SK-OV-3; Homo sapiens, SK-OV-3, read-out: LC50 (the source's name)",> 100 µM
same,TGI,SK-OV-3; SK-OV-3,>1.00E−04 Molar
same,Percent Growth,"SK-OV-3; SK-OV-3, Log10 concentration −4.0 Molar",66%
same,Percent Growth,"SK-OV-3; SK-OV-3, Log10 concentration −5.0 Molar",76%
same,Percent Growth,"SK-OV-3; SK-OV-3, Log10 concentration −6.0 Molar",88%
same,Percent Growth,"SK-OV-3; SK-OV-3, Log10 concentration −7.0 Molar",95%
same,Percent Growth,"SK-OV-3; SK-OV-3, Log10 concentration −8.0 Molar",93%
same,GI50,"OVCAR-4; Homo sapiens, OVCAR-4",1.86 µM
same,CC50,"OVCAR-4; Homo sapiens, OVCAR-4, read-out: LC50 (the source's name)",> 100 µM
same,TGI,OVCAR-4; OVCAR-4,9.89E−06 Molar
same,Percent Growth,"OVCAR-4; OVCAR-4, Log10 concentration −4.0 Molar",−9%
same,Percent Growth,"OVCAR-4; OVCAR-4, Log10 concentration −5.0 Molar",0%
same,Percent Growth,"OVCAR-4; OVCAR-4, Log10 concentration −6.0 Molar",69%
same,Percent Growth,"OVCAR-4; OVCAR-4, Log10 concentration −7.0 Molar",103%
same,Percent Growth,"OVCAR-4; OVCAR-4, Log10 concentration −8.0 Molar",109%
same,IC50,MMRU,0.5 µM
same,IC50,MDA-MB-23,0.9 µM
same,TGI,ERVX; ERVX,>1.00E−04 Molar
same,Percent Growth,"ERVX; ERVX, Log10 concentration −4.0 Molar",18%
same,Percent Growth,"ERVX; ERVX, Log10 concentration −5.0 Molar",23%
same,Percent Growth,"ERVX; ERVX, Log10 concentration −6.0 Molar",78%
same,Percent Growth,"ERVX; ERVX, Log10 concentration −7.0 Molar",96%
same,Percent Growth,"ERVX; ERVX, Log10 concentration −8.0 Molar",92%
same,GI50,ERVX; Homo sapiens,3.24 µM
same,CC50,"ERVX; Homo sapiens, read-out: LC50",> 100 µM
same,TGI,BT-549; BT-549,>1.00E−04 Molar
same,Percent Growth,"BT-549; BT-549, Log10 concentration −4.0 Molar",61%
same,Percent Growth,"BT-549; BT-549, Log10 concentration −5.0 Molar",75%
same,Percent Growth,"BT-549; BT-549, Log10 concentration −6.0 Molar",90%
same,Percent Growth,"BT-549; BT-549, Log10 concentration −7.0 Molar",99%
same,Percent Growth,"BT-549; BT-549, Log10 concentration −8.0 Molar",95%
same,GI50,"BT-549; Homo sapiens, BT-549",> 100 µM
same,CC50,"BT-549; Homo sapiens, BT-549, read-out: LC50 (the source's name)",> 100 µM
same,GI50,ROP-92; Homo sapiens,> 100 µM
same,CC50,"ROP-92; Homo sapiens, ROP-92, read-out: LC50 (the source's name)",> 100 µM
same,TGI,ROP-92; ROP-92,>1.00E−04 Molar
same,Percent Growth,"ROP-92; ROP-92, Log10 concentration −4.0 Molar",58%
same,Percent Growth,"ROP-92; ROP-92, Log10 concentration −5.0 Molar",69%
same,Percent Growth,"ROP-92; ROP-92, Log10 concentration −6.0 Molar",93%
same,Percent Growth,"ROP-92; ROP-92, Log10 concentration −7.0 Molar",102%
same,Percent Growth,"ROP-92; ROP-92, Log10 concentration −8.0 Molar",91%
